According to a melting point compilation (Tetko et al.; mined from patent text by program, amines drawn as free bases though some values may be those of a salt):

Compared with `COc1cc2c(cc1OC)[C@@H]1C[C@H](NC(=O)OC(C)(C)C)[C@@H](N3C[C@H](CF)CC3=O)CN1CC2`, `COc1cc2c(cc1OC(=O)c1ccccc1)C1Cc3c(Cl)cc(OC)c(OC(=O)c4ccccc4)c3CN1CC2` (configuration not stated) is lower in melting point: > 300 °C for the first, 152 to 154 °C for the second.

First: O=C(O)c1cn(C2COC2)c2cc(F)c(F)c(O)c2c1=O
Second: CC(=O)Nc1cc(C)c2c(c1O)C(=O)CC2
The melting point of the first is higher: 273 to 276 °C for the first, 193 to 198 °C for the second.

Compared with `Cc1ccc2cc(-c3ccc4c(c3)C(C)(C)CCC4(C)C)ccc2c1`, `CCN(CC)C(=O)c1c(OC)ccc2cc(-c3ccc(OC)cc3)ccc12` is lower in melting point: 173 to 175 °C for the first, 118 to 120 °C for the second.

First: CC(=O)N(c1cccc(Oc2ccccc2)c1)C(C)C(=O)O (configuration not stated)
Second: Cn1c(C(=O)O)ccc1C(=O)c1ccccc1
The melting point of the first is lower: 145 to 146 °C for the first, 178 to 181 °C for the second.

First: Cc1ccc(C(=O)CC(O)C(=O)O)cc1 (configuration not stated)
Second: CC(O)c1cccc(OCc2cccc(C(=O)O)c2)c1 (configuration not stated)
The melting point of the first is lower: 92 to 100 °C for the first, 115 to 117 °C for the second.

Compared with `CCC12CCC3C4=C(CC(OC)=CC4)C(C)CC3C1CCC2=O` (configuration not stated), `C=CC1CC2=CC(=O)CCC2(C)C2CCC3(C)C(CCC3(C)O)C12` (configuration not stated) is lower in melting point: 118 to 125 °C for the first, 116 to 117 °C for the second.

First: CCOC(=O)C(=CN1c2ccc(F)c(F)c2OCC1COC)C(=O)OCC (configuration not stated)
Second: CCOC(=O)/C=C/c1cc(F)c2ncc(C(=O)NCc3ccc(Cl)cc3)c(O)c2c1
The melting point of the first is lower: 81 °C for the first, 278 to 280 °C for the second.

First: COc1ccc(C(=O)NCCc2ccccc2)cc1OC
Second: CCOc1ccc(C)c(N(Cc2ccccc2)C(=O)C(C)(C)Br)c1
The melting point of the first is higher: 123 to 124 °C for the first, 87 to 88 °C for the second.

`Cc1ccccc1C(=O)Nn1cc(-c2ccccc2)nc1S` and `CN1C(=O)[C@H](NC(=O)CCc2ccccc2Cl)N=C(c2ccccc2)c2ccccc21` cannot be ordered by melting point: 159 to 160 °C for the first, 158 to 160 °C for the second.

Compared with `NC(=O)c1cc(-c2ccncc2)c[nH]c1=O`, `O=C(Nc1cccc(-c2ccnc3c(C(=O)c4cccs4)cnn23)c1)c1ccccn1` is lower in melting point: > 300 °C for the first, 198 to 200 °C for the second.

`CCON=C(C(C)=NO)c1ccc(OC[Si](C)(C)c2ccc(F)cc2)cc1` and `CC(=O)NC(C)c1ccc(CN2CCN(c3ccc(F)cc3)CC2)cc1` (configuration not stated) cannot be ordered by melting point: 100 to 102 °C for the first, 101 to 103 °C for the second.

First: CC(Cc1ccc(C(=O)OCOC(=O)C(C)(C)C)cc1)NCC(O)c1ccc(O)c(CO)c1 (configuration not stated)
Second: CCCCc1oc2ccc(C(=O)OC)cc2c1C(=O)c1ccc(O)cc1
The melting point of the first is lower: 55 to 57 °C for the first, 152 to 153 °C for the second.

First: O=C(O)c1cc(OCCOc2cccc3ccccc23)cc(OCCOc2cccc3ccccc23)c1
Second: N#CC(C(=O)Nc1cccc(F)c1)C(=O)c1nn(-c2ccccc2)c2c1Cc1ccccc1-2 (configuration not stated)
The melting point of the first is lower: 213 to 215 °C for the first, 278 to 284 °C for the second.

First: Nc1cccc(-c2ccc(CCN3CCN(C(=O)Nc4ccc(Cl)cc4)CC3)cc2)n1
Second: O=C(CO)NCc1ccc2ccn(C3CCN(CCc4ccc(F)cc4)CC3)c2c1
The melting point of the first is higher: 160 to 162 °C for the first, 76 to 78 °C for the second.

Compared with `Cc1ccc(C(=O)Nc2cc(N3CCN(C)CC3)cc(C(F)(F)F)c2)cc1Nc1nccc(-c2cccnc2)n1`, `NC(=O)CNC(=O)c1cccc(-c2ncnc3cc(Cc4cccc(C(F)(F)F)c4)sc23)c1` is higher in melting point: 192 to 194 °C for the first, 205 to 206 °C for the second.

First: CCOc1cc2nc(S(=O)c3ccccc3-c3ccccn3)[nH]c2cc1OCC (configuration not stated)
Second: Fc1ccc(F)c(-c2nc(-c3ccccn3)no2)c1
The melting point of the first is higher: 194 to 195 °C for the first, 120 to 126 °C for the second.

First: COC(=O)c1ccc(Cl)cc1NC(=O)CSc1ccccc1Br
Second: O=C(Nc1ccc(Cl)cc1)c1ccccc1F
The melting point of the first is higher: 99 to 101 °C for the first, 94.5 to 96.2 °C for the second.

Compared with `O=C1C=CC(OC2CCCCC2)N1S(=O)(=O)c1ccccc1` (configuration not stated), `O=C([C@@H]1CCCN1C(=O)OCc1ccccc1)N1CCOCC1` is higher in melting point: 104 to 106 °C for the first, 139 to 140 °C for the second.

First: COc1cc(C(C)=O)c(O)cc1N1CCN(Cc2ccccc2)CC1
Second: CCn1c(=O)n(Cc2ccccc2)c(=O)c2c(N3CCN(C)CC3)cc(Cl)cc21
The melting point of the first is higher: 90 to 92 °C for the first, 68 to 75 °C for the second.

Compared with `CC(C)C1N(CC(N)=O)C(=O)CN1C(=O)CN` (configuration not stated), `CCCCN1C[C@@H](C(=O)O)N(C(=O)[C@H](C)CSC(=O)c2ccccc2)C1=O` is lower in melting point: 205 to 211 °C for the first, 119 °C for the second.

First: O=[N+]([O-])c1ccccc1NC(CO)c1c(Cl)cccc1Cl (configuration not stated)
Second: NC(=O)C(Nc1ccccc1[N+](=O)[O-])c1c(Cl)cccc1Cl (configuration not stated)
The melting point of the first is lower: 128 °C for the first, 182 °C for the second.

First: Cc1sc(-c2cccs2)nc1O
Second: Cc1noc(NS(=O)(=O)c2cccs2)c1Br
The melting point of the first is higher: 152 to 153 °C for the first, 125 to 127 °C for the second.

First: CCCCCCCCCCCCSc1ccc2nn(-c3cc(C(C)(C)C)cc(C(C)(C)C)c3O)nc2c1
Second: CCCCCCOc1ccc(-c2nccc(-c3cccc(F)c3F)n2)cn1
The melting point of the first is lower: 62 to 64 °C for the first, 110 °C for the second.

First: O=C(CSc1ccccc1)c1ccc2[nH]c3nc(Cl)ccc3c2c1
Second: COc1ccc(-c2cccc3[nH]c4c(c23)CCN(Cc2ccccc2)CC4)c(C)c1
The melting point of the first is higher: 256 °C for the first, 177 to 178 °C for the second.

First: COc1ccc(CN2C(=O)C[C@H]2[C@@H]2COC(C)(C)O2)c(OC)c1
Second: COc1ccc(OC)c2c1CCC(NC(C)=O)C2 (configuration not stated)
The melting point of the first is lower: 85 to 86 °C for the first, 156 to 158 °C for the second.

First: O=C1N(c2ccc(I)cc2)CCCC1(Cl)Cl
Second: CC(=O)N1CCc2nc(N)nc(-c3ccc(Cl)cc3)c2C1
The melting point of the first is lower: 153 to 155 °C for the first, 218 to 220 °C for the second.

First: C=CCn1c(C)nc2c1CC(C(=O)OCC)CC2=O (configuration not stated)
Second: COC(=O)C1COC(c2ncn3c2CN(C)C(=O)c2c(Cl)cccc2-3)=N1 (configuration not stated)
The melting point of the first is lower: 95 to 97 °C for the first, 216 to 218 °C for the second.

First: Cc1cccc(OC(F)F)c1NC(=O)CCl
Second: CCOC(=O)[C@@H](CO)NCc1c(N)cccc1Cl
The melting point of the first is higher: 85 to 86 °C for the first, 73 to 75 °C for the second.

First: CC(=O)C1=CC(C)(C)C=CC1
Second: CC(=O)c1cc(Cl)c(O)c2ncccc12
The melting point of the first is lower: 27 to 30 °C for the first, 163 to 166 °C for the second.

First: O=C1C=CC(=O)N1CO
Second: CCCCC(=O)Nc1cscc1N
The melting point of the first is lower: 96.5 to 97 °C for the first, 110 °C for the second.

Compared with `N#Cc1cccc(-n2cnc(-c3ccccn3)n2)c1`, `N#Cc1cccc(CCc2nnc(-c3ccc4nccn4c3)o2)c1` is lower in melting point: 194 to 195 °C for the first, 168 to 169 °C for the second.

First: CCc1cnc(N2CCN(c3nc(-c4ccccc4)nc4ccccc34)CC2)nc1
Second: O=c1[nH]c(=Cc2ccc(OCc3ccccc3)cn2)c(=O)[nH]c1=CCc1ccccc1
The melting point of the first is lower: 137 to 138 °C for the first, 223 to 225 °C for the second.

First: Cc1ccc(Cl)cc1NC(=S)Nc1cc[nH]n1
Second: CC(C)(CSc1ccc(Cl)cc1)C(O)Cn1ccnc1 (configuration not stated)
The melting point of the first is higher: 221 to 222 °C for the first, 109 to 110 °C for the second.

Compared with `O=C(c1ccccc1)N(CC(=O)N1c2ccccc2N(Cc2ccccc2)C(=O)[C@H]2CCC[C@H]21)Cc1ccccc1` (relative stereo), `O=C1c2ccccc2C(=O)N1CC(=O)N1c2ccccc2N(Cc2ccccc2)C(=O)[C@H]2CCC[C@H]21` (relative stereo) is higher in melting point: 166 to 168 °C for the first, 247 to 249 °C for the second.

Compared with `Oc1cc(C(F)(F)F)nc2cccc(C(F)(F)F)c12`, `O=c1[nH]c(C(F)(F)F)nc2ccccc12` is lower in melting point: 314 to 315 °C for the first, 220 °C for the second.

First: Cc1ccc(N2CCN(Cc3ccc4c(c3)NCCN4)CC2)cc1Cl
Second: O=C1Cc2cc(OCCN3CCC(Cc4ccc(F)cc4)CC3)ccc2N1
The melting point of the first is higher: 151 to 152 °C for the first, 149 to 150 °C for the second.

First: CN(C)Cc1nnc2n1-c1ccc([N+](=O)[O-])cc1C(c1ccccc1)=[N+]([O-])C2
Second: CCOC(=O)c1nnc2n1-c1sc(Cl)cc1C(c1ccccc1Cl)=NC2
The melting point of the first is higher: 228 to 230 °C for the first, 180 to 182 °C for the second.

Compared with `COc1nc(NC(=O)NS(=O)(=O)c2cc(Cl)ccc2C(=O)OC(C)C)nc(C(F)(F)F)n1`, `Cc1cc(C(=O)NCO)ncc1C(c1c(F)ccc(F)c1F)S(=O)(=O)CCC(F)(F)C(F)(F)F` (configuration not stated) is lower in melting point: 160 to 163 °C for the first, 126 to 128 °C for the second.

First: NC(=S)Cc1cccc(-c2nc(=O)c3ccccc3s2)n1
Second: CCOc1ccc2nc(Sc3ccc([N+](=O)[O-])c(N)c3)sc2c1
The melting point of the first is higher: 257 °C for the first, 126 to 129 °C for the second.

Compared with `Cc1c(C(=O)O)cnn1-c1ccc(OC(F)(F)F)cc1`, `COc1ccc(CC(N(C)S(=O)(=O)c2ccc(C)cc2)C(C)(C)C(=O)Cl)cc1` (configuration not stated) is lower in melting point: 176 to 178 °C for the first, 110 to 111 °C for the second.

First: CON1CCC(C#N)(NO)CC1
Second: Cc1c(Br)c(=O)n(C2CCCC2)c2nc(Nc3ccc(N4CCNCC4)nc3)ncc12
The melting point of the first is lower: 130 to 131 °C for the first, 290 °C for the second.

First: O=[N+]([O-])c1ccc2c(c1Br)OCO2
Second: CC1(C)COc2ccc(C#N)cc21
The melting point of the first is higher: 87 to 89 °C for the first, 70 to 71 °C for the second.

First: CC(C)(C)C(=O)Nc1nn(C(=O)C(C)(C)C)c(N)c1C#N
Second: CNc1c(C)c(C)c(OC(C)=O)c(C)c1[N+](=O)[O-]
The melting point of the first is higher: 181 to 184 °C for the first, 143 to 146 °C for the second.

First: CC1(C)C(=O)Nc2ccc(-c3ccc([N+](=O)[O-])s3)cc21
Second: COc1ccc(-c2nc(N)ncc2-c2ccc(=O)[nH]n2)cc1F
The melting point of the first is lower: 223 to 225 °C for the first, 250 °C for the second.

First: NCCSC(c1ccccc1)c1ccccc1
Second: CC(C)(COC(=O)OOC(=O)OCC(C)(C)c1ccccc1)c1ccccc1
The melting point of the first is higher: 74 °C for the first, 59 to 60 °C for the second.

First: N=C(NN)c1cccc(Cc2c[nH]cn2)c1O
Second: CCC1(Cc2nc[nH]c2C)CCc2c(C)c3ccccc3n2C1=O (configuration not stated)
The melting point of the first is lower: 188 °C for the first, 202 to 204 °C for the second.

First: CCN1C(=O)CCCc2c1ccc(Nc1ncc(Cl)c(N[C@@H]3CCC[C@H]3NS(C)(=O)=O)n1)c2OC (relative stereo)
Second: COc1ccc2nc(COc3ccc(CC4SC(=O)NC4=O)cc3)n(C)c2c1 (configuration not stated)
The melting point of the first is lower: 141 °C for the first, 267 to 271 °C for the second.

First: O=C1COCC(=O)NCCOCCN1
Second: COc1cc(C=C2N=C(C)OC2=O)ccc1OC(C)=O
The melting point of the first is lower: 180 to 181 °C for the first, 205 to 206 °C for the second.

Compared with `C=CC[C@@H](C(=O)N[C@H](C(=O)N[C@H](C)c1ccccc1)C(C)(C)C)[C@H](OCC)C(=O)OC`, `CCCCCCn1ccc(=O)c(OCc2ccccc2)c1C` is lower in melting point: 131 to 134 °C for the first, 46 °C for the second.

`CCCCN(Cc1ccc(-c2ccccc2S(=O)(=O)NC(=O)c2ccccc2Cl)cc1)C(=O)N(C)c1ccccc1C(F)(F)F` and `COc1ccc(N)cc1CNC(C)=O` cannot be ordered by melting point: > 60 °C for the first, 123 to 125 °C for the second.

First: CC(C)COc1ccc(Br)cc1OCC(C)C
Second: CC(CCCCCCC(=O)O)C1CCC2C3CCC4CC(O)CCC4(C)C3CC(O)C12C (configuration not stated)
The melting point of the first is lower: 47 °C for the first, 182 to 185 °C for the second.
